Where two headings read alike, the source gives them in different places.
Legend:
[1] = current marketed TD patch products; per 24 hours; cited from earlier work
[2] = pig
Description: Further, the rate of permeation may be determined using the Attenuated Total Reflection Fourier Transform Infrared Spectroscopy (ATR-FTIR), and multivariate modeling. […] The flux results may be obtained based on comprehensive in vitro permeation studies by using the pig abdominal skin samples, that may be normalized to reflect the equivalence of 0.10 cm skin thickness.
A proprietary chemometric modeling method may be used to perform quantitative analysis based on spectral data. In addition, the method may be used to determine the concentration of the active ingredient dissolved in the EthoGel formulation.
The skin permeation study may be conducted using a Bruker ATR-FTIR instrument (Model Alpha; Bruker Optics Ltd., MA, USA) equipped with a 2×2 mm diamond spectral window. Pig abdominal skin samples may be obtained from a local meat supplier. The skin samples may be treated by removing the fat and connecting tissues from the dermis side, followed by cutting them into 2×2 cm-size pieces and keeping them at freezing temperature for later use. Further, skin thickness may be measured before the experiment by allowing the skin sample to warm to room temperature and by using a Material Thickness Meter (Model No. PCE-CT 26; PCE Americas Inc, Jupiter, Fla., USA).
In a typical experiment, the skin sample may be put on the spectral window of the spectrometer with the dermis side facing the window. Further, about 1 g of the EthoGel formulation may be applied on the stratum corneum side of the skin sample, which may be covered by an applicator with an area of 3.5 cm^2 to minimize the loss of permeation enhancers (i.e., ethanol) through evaporation from the formulation. IR spectra may be taken at 15-60 min intervals and the experiment may be continued for up to 72 hours when needed. Further, the spectra may be used for calculating w/w % of the active ingredient (ibuprofen or diclofenac), ethanol, and glycerin on the dermis side of the skin. Chemometric modeling may be conducted using the software Unscrambler (CAMO Software AS, Oslo, Norway). The diffusion coefficients of the active ingredient, ethanol, and glycerin can be calculated using the following equation:
where D is the diffusion coefficient (cm2/H), L is the lag time (hour) and h is the skin thickness (cm).
The flux J (μg/cm2/H) is calculated using the following equation:
where D is the diffusion coefficient, C is the concentration (μg/mL) of the active ingredient dissolved in the EthoGel formulation and h is the thickness of the skin.

SMILES: CCN(C)C(=O)Oc1cccc([C@H](C)N(C)C)c1 [rivastigmine]
- amount of drug delivered in 24 hours [1]: 4.5 mg

SMILES: CCCN(CCc1cccs1)[C@H]1CCc2c(O)cccc2C1 [ritigotine]
- amount of drug delivered in 24 hours [1]: 1 mg

SMILES: CC(C)Cc1ccc(C(C)C(=O)O)cc1 (stereo not drawn) [ibuprofen, Ibuprofen]
- flux achieved by EGATDDS [2]: 25-1337 μg/cm2/H
- flux ([2]; 4 w/w %): 283 μg/cm2/H

SMILES: O=C(O)Cc1ccccc1Nc1c(Cl)cccc1Cl [diclofenac, Diclofenac]
- flux achieved by EGATDDS [2]: 5-324 μg/cm2/H
- flux ([2]; 1 w/w %): 54 μg/cm2/H

Source: US20230147389A1, “Transdermal Drug Delivery System for Delivering a Drug to a Patient” (priority 2021, published 2023)
